Tests used:
[1] = tested on: Female db/db mice; assay: Oral glucose tolerance test (fasted) in female db/db mice after 11 days oral dosing; format: in vivo; conditions: for Oral Glucose Tolerance Test (fasted) Plasma Glucose: ± sem
Experimental: Female db/db mice (C57BLK S/J-m^+/^+ Lepr^db Jackson Labs, Bar Harbor, Me.), 7–8 weeks of age, were housed four per cage in solid-bottomed shoe box cages. Room temperature was maintained at 68–72° F. and humidity at 50–65%. Room lighting was on a 12-hour light/12-hour dark cycle. The mice were maintained on NIH Rat and Mouse/Auto 6F reduced fat diet #5K52 (PMI Nutrition Int'l Inc.). Food and water were supplied ad libitum.
Test compound and vehicle were dosed orally and prepared as suspensions in 0.5% hydroxypropylmethylcellulose (Dow Chemical, Midland, Mich.). The dosing volume was 10 mL/kg of body weight.
Different groups of female db/db mice (7–8/group) were orally gavaged daily for 11 days with either 0.5% methylcellulose in dH2O (vehicle), topiramate at 30 or 100 mg/kg/day or 2,3:4,5-bis-O-(1-methylethylidene)-β-L-fructopyranose sulfamate (hereinafter referred to as Compound V) at 30 or 100 mg/kg/day. On day 10, the animals were fasted for 20 hours before being tested for oral glucose tolerance (OGT). On day 11, four hours after the final dose for each group, an oral glucose tolerance test (OGTT) was performed by oral glucose administration of 2 g/kg. Animals were bled through tail clip at 0 (before glucose), 30, 60 and 120 min after glucose challenge. The blood samples were collected into heparinized CB microvettes and then put on ice. The plasma samples will be assayed for plasma glucose determination by using SIGMA DIAGNOSTICS Trinder reagent (Sigma, St. Louis, Mo.). Statistical analysis was performed using the program Instat (Graphpad, Monrovia, Calif.) and performing one-way ANOVA with a Dunnett's multiple comparison test.
Following the above described procedure, the effect of topiramate and compound V on oral glucose tolerance in female db/db mice, 7 mice/group, was determined, with results as listed in Table 9. The abbreviation N represents the number of animals per study group.

[2] = tested on: ob/ob mice; assay: ob/ob mice first study: topiramate in food for 120 days; plasma glucose, insulin, triglycerides, body weight; format: in vivo; conditions: for Blood concentration Glucose / Blood concentration Insulin / Blood concentration Triglycerides: mean ± SEM, N 10
Description: It is known that ob/ob mice when allowed to eat ad libitum, develop abnormally high blood levels of insulin (hyperinsulinemia), glucose (hyperglycemia), lesions of the skin, and a high level of glycosylated hemoglobin, all of which are hallmark signs of Type II diabetes mellitus (R. R. HENRY, Ann. Intern. Med. 1996, 124, 97–103; G. W. EDELSON, Clin. Podiatr. Med. Surg. 1998, 15, 41–48; P. R. JOHNSON, M. R. GREENWOOD, B. A. HORWITZ and J. S. STERN, Annu. Rev. Nutr. 1991, 11, 325–353). Based on this knowledge of the ob/ob mouse model, two studies were designed to determine the effect of compounds of formula (I) in these mice models.
In the first study, a uniform population of mice was divided into three groups; in one group of control mice no topiramate was added to the food for the entire 120-day study period. In a second group topiramate was added to the food in amounts sufficient to give a daily dose of 20 mg/kg for 84 days, then a daily dose of 180 mg/kg for 36 days. A third group received a daily dose of 60 mg/kg for the entire 120 days. After completion of the 120-day period, the mice were sacrificed and blood was obtained and prepared for subsequent analyses of glucose, insulin and triglycerides in plasma.

[3] = tested on: Female ZDF rats; assay: Blood glucose and oral glucose tolerance in female ZDF rats dosed orally for 16 days; format: in vivo; conditions: for Plasma Glucose Levels: 16 days, ± SEM
Experimental: Female ZDF rats were also randomly divided into control and topiramate (30 or 100 mg/kg/day) treated groups, dosed orally for 16 days, and tested for blood glucose levels and oral glucose tolerance following glucose challenge of 2 g/kg. The effect of topiramate was as listed in Table 10 (N=8 rats per treatment group).

[4] = tested on: human epilepsy; conditions: clinical trials; cited from earlier work
[5] = TPM 1: 20 mg/kg/day 84 days then 180 mg/kg/day 36 days in food
[6] = TPM 2: 60 mg/kg/day 120 days in food

CC1(C)O[C@@H]2[C@@H](CO[C@@]3(COS(N)(=O)=O)OC(C)(C)O[C@@H]23)O1 [Topiramate, 2,3:4,5-bis-O-(1-methylethylidene)-β-D-fructopyranose sulfamate]
Oral Glucose Tolerance Test (fasted) Plasma Glucose ([1]; 30 mg/kg/day, 0 min (before glucose 2 g/kg)): 188 ± 16.7 mg/dL
Oral Glucose Tolerance Test (fasted) Plasma Glucose ([1]; 30 mg/kg/day, 30 min after glucose 2 g/kg): 401 ± 68.4 mg/dL
Oral Glucose Tolerance Test (fasted) Plasma Glucose ([1]; 30 mg/kg/day, 60 min after glucose 2 g/kg): 295 ± 31.5 mg/dL
Oral Glucose Tolerance Test (fasted) Plasma Glucose ([1]; 30 mg/kg/day, 120 min after glucose 2 g/kg): 124 ± 20 mg/dL
Oral Glucose Tolerance Test (fasted) Plasma Glucose ([1]; 100 mg/kg/day, 0 min (before glucose 2 g/kg)): 160 ± 12.8 mg/dL
Oral Glucose Tolerance Test (fasted) Plasma Glucose ([1]; 100 mg/kg/day, 30 min after glucose 2 g/kg): 454 ± 38.5 mg/dL
Oral Glucose Tolerance Test (fasted) Plasma Glucose ([1]; 100 mg/kg/day, 60 min after glucose 2 g/kg): 271 ± 52.6 mg/dL
Oral Glucose Tolerance Test (fasted) Plasma Glucose ([1]; 100 mg/kg/day, 120 min after glucose 2 g/kg): 184 ± 32.3 mg/dL
elevated blood glucose levels induced by oral glucose challenge ([1]; 30 or 100 mg/kg/day): suppressed
fasting glucose levels ([1]; 30 or 100 mg/kg/day): decreased
Glucose percentage difference versus control [2, 5]: −39%
Insulin percentage difference versus control [2, 5]: −37%
Triglycerides percentage difference versus control [2, 5]: −46%
Blood concentration Glucose [2, 5]: 183 ± 33 mg/dL
Blood concentration Insulin [2, 5]: 6.4 ± 0.7 ng/mL
Blood concentration Triglycerides [2, 5]: 103 ± 5 mg/dL
Glucose percentage difference versus control [2, 6]: −41%
Insulin percentage difference versus control [2, 6]: −21%
Triglycerides percentage difference versus control [2, 6]: −41%
Blood concentration Glucose [2, 6]: 179 ± 11 mg/dL
Blood concentration Insulin [2, 6]: 8.0 ± 0.9 ng/mL
Blood concentration Triglycerides [2, 6]: 113 ± 8 mg/dL
body weight ([2]; TPM 2 group (60 mg/kg/day), day 119): 62.2 ± 1.2 g
body weight ([2]; TPM 2 group (60 mg/kg/day), day −1 (beginning of administration)): 48.4 ± 0.9 g
Body weight gain compared with control ([2]; TPM 2 group (60 mg/kg/day), day −1 to day 119): Body weight gain for the control and TPM 2 groups from day −1 to day 119 was also similar.
Plasma Glucose Levels ([3]; 30 mg/kg/day oral, 60 Min after Challenge (glucose 2 g/kg), P < 0.05): 342 ± 32 md/dL
Plasma Glucose Levels ([3]; 30 mg/kg/day oral, 90 Min after Challenge, P < 0.01): 269 ± 32 md/dL
Plasma Glucose Levels ([3]; 30 mg/kg/day oral, 120 Min after Challenge, P < 0.01): 206 ± 26 md/dL
Plasma Glucose Levels ([3]; 30 mg/kg/day oral, Time = 0): 121 ± 13 md/dL
Plasma Glucose Levels ([3]; 100 mg/kg/day oral, 60 Min after Challenge (glucose 2 g/kg), P < 0.01): 333 ± 32 md/dL
Plasma Glucose Levels ([3]; 100 mg/kg/day oral, 90 Min after Challenge, P < 0.01): 242 ± 28 md/dL
Plasma Glucose Levels ([3]; 100 mg/kg/day oral, 120 Min after Challenge, P < 0.01): 173 ± 23 md/dL
Plasma Glucose Levels ([3]; 100 mg/kg/day oral, Time = 0): 129 ± 15 md/dL
oral glucose tolerance ([3]; at 60, 90 and 120 minutes after glucose challenge): improves
efficacy as adjunctive therapy or monotherapy in simple and complex partial seizures and secondarily generalized seizures [4]: effective

— patent publication US7109174B2, “Anticonvulsant derivatives useful for preventing the development of type II diabetes mellitus and syndrome X” (Ortho-McNeil Pharmaceutical, Inc., priority 2000, dated 2006)
